Measurements published in patent publication US11987588B2, “Modulators of the beta-3 adrenergic receptor useful for the treatment or prevention of heart failure and disorders related thereto” (Arena Pharmaceuticals, Inc., priority 2017, dated 2024).

Molecular target: Beta-3 Adrenergic Receptor (Homo sapiens (Human), UniProt P13945)
Test: Homogeneous Time-Resolved Fluorescence (HTRF) cAMP antagonist assay, IC50 determination
Type: cell-based
Conditions: CHO-K1 cells stably expressing recombinant receptor, isoproterenol at EC90
How it was run: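 CHO-K1 cells stably expressing the recombinant receptor were preincubated with compound (10-point, 5-fold dilutions; top final typically 10 or 100 μM) in PBS with 1 mM IBMX, then stimulated with isoproterenol at its EC90 for 1 h at room temperature. cAMP was read by HTRF against an on-plate standard curve.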

Beta-3 Adrenergic Receptor, sequence (P13945 whole entry, species assumed): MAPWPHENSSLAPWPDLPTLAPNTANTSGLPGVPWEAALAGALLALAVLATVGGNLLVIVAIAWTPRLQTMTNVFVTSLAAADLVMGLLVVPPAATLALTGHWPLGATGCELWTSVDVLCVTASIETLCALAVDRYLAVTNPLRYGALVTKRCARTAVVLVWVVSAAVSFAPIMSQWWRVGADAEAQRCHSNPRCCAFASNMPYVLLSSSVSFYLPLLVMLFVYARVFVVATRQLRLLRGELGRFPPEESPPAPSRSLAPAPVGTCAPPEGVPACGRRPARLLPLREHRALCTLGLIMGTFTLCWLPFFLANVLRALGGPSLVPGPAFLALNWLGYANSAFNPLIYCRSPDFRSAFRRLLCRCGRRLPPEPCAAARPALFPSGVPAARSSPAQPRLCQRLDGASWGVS

Row | SMILES | IC50
1 | CNS(=O)(=O)c1cccc(OC[C@@H](O)CNC2COC3(CCN(S(=O)(=O)c4cc(OC)ccc4C#N)CC3)C2)c1 (stereo partly drawn) [Compound 263, 3-((2S)-3-(8-(2-cyano-5-methoxyphenylsulfonyl)-1-oxa-8-azaspiro[4.5]decan-3-ylamino)-2-hydroxypropoxy)-N-methylbenzenesulfonamide] | 30.8 nM
2 | CCn1cc(-c2cccc(S(=O)(=O)N3CCC4(CC3)CC(NC[C@H](O)COc3cccc(S(=O)(=O)N(C)C)c3)CO4)c2)cn1 (stereo partly drawn) [Compound 272, 3-((2S)-3-(8-(3-(1-ethyl-1H-pyrazol-4-yl)phenylsulfonyl)-1-oxa-8-azaspiro[4.5]decan-3-ylamino)-2-hydroxypropoxy)-N,N-dimethylbenzenesulfonamide] | 107 nM
3 | CN(C)S(=O)(=O)c1cccc(OC[C@@H](O)CNC2COC3(CCN(S(=O)(=O)c4cccc(-c5ccc(CN)cc5)c4)CC3)C2)c1 (stereo partly drawn) [Compound 273, 3-((2S)-3-(8-(4′-(aminomethyl)biphenyl-3-ylsulfonyl)-1-oxa-8-azaspiro[4.5]decan-3-ylamino)-2-hydroxypropoxy)-N,N-dimethylbenzenesulfonamide] | 15.5 nM
4 | CN(C)S(=O)(=O)c1cccc(OC[C@@H](O)CNC2COC3(CCN(S(=O)(=O)c4cccc(-c5ccc(S(N)(=O)=O)cc5)c4)CC3)C2)c1 (stereo partly drawn) [Compound 274, 3′-(3-((S)-3-(3-(N,N-dimethylsulfamoyl)phenoxy)-2-hydroxypropylamino)-1-oxa-8-azaspiro[4.5]decan-8-ylsulfonyl)biphenyl-4-sulfonamide] | 21.1 nM
5 | CN(C)S(=O)(=O)c1cccc(OC[C@@H](O)CNC2COC3(CCN(S(=O)(=O)c4cccc(-c5ccc(N)nc5)c4)CC3)C2)c1 (stereo partly drawn) [Compound 275, 3-((2S)-3-(8-(3-(6-aminopyridin-3-yl)phenylsulfonyl)-1-oxa-8-azaspiro[4.5]decan-3-ylamino)-2-hydroxypropoxy)-N,N-dimethylbenzenesulfonamide] | 21.3 nM
6 | CN(C)S(=O)(=O)c1cccc(OC[C@@H](O)CNC2COC3(CCN(S(=O)(=O)c4cccc(-c5ccc(OCC#N)cc5)c4)CC3)C2)c1 (stereo partly drawn) [Compound 276, 3-((2S)-3-(8-(4′-(cyanomethoxy)biphenyl-3-ylsulfonyl)-1-oxa-8-azaspiro[4.5]decan-3-ylamino)-2-hydroxypropoxy)-N,N-dimethylbenzenesulfonamide] | 200 nM
7 | CN(C)S(=O)(=O)c1cccc(OC[C@@H](O)CNC2COC3(CCN(S(=O)(=O)c4cccc(-c5ccc(CC#N)cc5)c4)CC3)C2)c1 (stereo partly drawn) [Compound 277, 3-((2S)-3-(8-(4′-(cyanomethyl)biphenyl-3-ylsulfonyl)-1-oxa-8-azaspiro[4.5]decan-3-ylamino)-2-hydroxypropoxy)-N,N-dimethylbenzenesulfonamide] | 46.7 nM
8 | CNS(=O)(=O)c1cccc(OC[C@@H](O)CN[C@@H]2COC3(CCN(S(=O)(=O)c4ccc5c(c4)NC(=O)CO5)CC3)C2)c1 [Compound 278, 3-((S)-2-hydroxy-3-((S)-8-(3-oxo-3,4-dihydro-2H-benzo[b][1,4]oxazin-6-ylsulfonyl)-1-oxa-8-azaspiro[4.5]decan-3-ylamino)propoxy)-N-methylbenzenesulfonamide] | 12.8 nM
9 | CNS(=O)(=O)c1cccc(OC[C@@H](O)CN[C@@H]2COC3(CCN(S(=O)(=O)c4cnn(-c5ccccc5)c4C)CC3)C2)c1 [Compound 280, 3-((S)-2-hydroxy-3-((S)-8-(5-methyl-1-phenyl-1H-pyrazol-4-ylsulfonyl)-1-oxa-8-azaspiro[4.5]decan-3-ylamino)propoxy)-N-methylbenzenesulfonamide] | 98 nM
10 | CNS(=O)(=O)c1cccc(OC[C@@H](O)CN[C@H]2COC3(CCN(S(=O)(=O)c4cnn(-c5ccccc5)c4C)CC3)C2)c1 [Compound 281, 3-((S)-2-hydroxy-3-((R)-8-(5-methyl-1-phenyl-1H-pyrazol-4-ylsulfonyl)-1-oxa-8-azaspiro[4.5]decan-3-ylamino)propoxy)-N-methylbenzenesulfonamide] | 10.7 nM
11 | CCn1cc(-c2cccc(S(=O)(=O)N3CCC4(CC3)C[C@H](NC[C@H](O)COc3cccc(S(=O)(=O)NC)c3)CO4)c2)cn1 [Compound 282, 3-((S)-3-((S)-8-(3-(1-ethyl-1H-pyrazol-4-yl)phenylsulfonyl)-1-oxa-8-azaspiro[4.5]decan-3-ylamino)-2-hydroxypropoxy)-N-methylbenzenesulfonamide] | 15.5 nM
12 | CCn1cc(-c2cccc(S(=O)(=O)N3CCC4(CC3)C[C@@H](NC[C@H](O)COc3cccc(S(=O)(=O)NC)c3)CO4)c2)cn1 [Compound 283, 3-((S)-3-((R)-8-(3-(1-ethyl-1H-pyrazol-4-yl)phenylsulfonyl)-1-oxa-8-azaspiro[4.5]decan-3-ylamino)-2-hydroxypropoxy)-N-methylbenzenesulfonamide] | 84.6 nM
13 | CNS(=O)(=O)c1cccc(OC[C@@H](O)CN[C@@H]2COC3(CCN(S(=O)(=O)c4cccc(-c5cccnc5)c4)CC3)C2)c1 [Compound 284, 3-((S)-2-hydroxy-3-((S)-8-(3-(pyridin-3-yl)phenylsulfonyl)-1-oxa-8-azaspiro[4.5]decan-3-ylamino)propoxy)-N-methylbenzenesulfonamide] | 11.6 nM
14 | CNS(=O)(=O)c1cccc(OC[C@@H](O)CN[C@H]2COC3(CCN(S(=O)(=O)c4cccc(-c5cccnc5)c4)CC3)C2)c1 [Compound 285, 3-((S)-2-hydroxy-3-((R)-8-(3-(pyridin-3-yl)phenylsulfonyl)-1-oxa-8-azaspiro[4.5]decan-3-ylamino)propoxy)-N-methylbenzenesulfonamide] | 25 nM
15 | CNS(=O)(=O)c1cccc(OC[C@@H](O)CN[C@@H]2COC3(CCN(S(=O)(=O)c4cccc(-c5ccc(N)nc5)c4)CC3)C2)c1 [Compound 286, 3-((S)-3-((S)-8-(3-(6-aminopyridin-3-yl)phenylsulfonyl)-1-oxa-8-azaspiro[4.5]decan-3-ylamino)-2-hydroxypropoxy)-N-methylbenzenesulfonamide] | 20.5 nM
16 | CNS(=O)(=O)c1cccc(OC[C@@H](O)CN[C@H]2COC3(CCN(S(=O)(=O)c4cccc(-c5ccc(N)nc5)c4)CC3)C2)c1 [Compound 287, 3-((S)-3-((R)-8-(3-(6-aminopyridin-3-yl)phenylsulfonyl)-1-oxa-8-azaspiro[4.5]decan-3-ylamino)-2-hydroxypropoxy)-N-methylbenzenesulfonamide] | 21.9 nM

Continued, values first:

Row | IC50 | SMILES
17 | 54.3 nM | CNS(=O)(=O)c1cccc(OC[C@@H](O)CNC2COC3(CCN(S(=O)(=O)c4c(Cl)ccc5nonc45)CC3)C2)c1 (stereo partly drawn) [Compound 262, 3-((2S)-3-(8-(5-chlorobenzo[c][1,2,5]oxadiazol-4-ylsulfonyl)-1-oxa-8-azaspiro[4.5]decan-3-ylamino)-2-hydroxypropoxy)-N-methylbenzenesulfonamide]
18 | 39 nM | CNS(=O)(=O)c1cccc(OC[C@@H](O)CNC2COC3(CCN(S(=O)(=O)c4ccc5cc(Cl)ccc5c4)CC3)C2)c1 (stereo partly drawn) [Compound 264, 3-((2S)-3-(8-(6-chloronaphthalen-2-ylsulfonyl)-1-oxa-8-azaspiro[4.5]decan-3-ylamino)-2-hydroxypropoxy)-N-methylbenzenesulfonamide]
19 | 28.8 nM | CNS(=O)(=O)c1cccc(OC[C@@H](O)CNC2COC3(CCN(S(=O)(=O)c4cccc(C)c4C)CC3)C2)c1 (stereo partly drawn) [Compound 265, 3-((2S)-3-(8-(2,3-dimethylphenylsulfonyl)-1-oxa-8-azaspiro[4.5]decan-3-ylamino)-2-hydroxypropoxy)-N-methylbenzenesulfonamide]
20 | 24.7 nM | CNS(=O)(=O)c1cccc(OC[C@@H](O)CN[C@@H]2COC3(CCN(S(=O)(=O)c4ccc(OC)c(C)c4)CC3)C2)c1 [Compound 266, 3-((S)-2-hydroxy-3-((S)-8-(4-methoxy-3-methylphenylsulfonyl)-1-oxa-8-azaspiro[4.5]decan-3-ylamino)propoxy)-N-methylbenzenesulfonamide]
21 | 9.43 nM | CNS(=O)(=O)c1cccc(OC[C@@H](O)CN[C@H]2COC3(CCN(S(=O)(=O)c4ccc(OC)c(C)c4)CC3)C2)c1 [Compound 267, 3-((S)-2-hydroxy-3-((R)-8-(4-methoxy-3-methylphenylsulfonyl)-1-oxa-8-azaspiro[4.5]decan-3-ylamino)propoxy)-N-methylbenzenesulfonamide]
22 | 12.3 nM | CNS(=O)(=O)c1cccc(OC[C@@H](O)CN[C@@H]2COC3(CCN(S(=O)(=O)c4cc(C)ccc4F)CC3)C2)c1 [Compound 268, 3-((S)-3-((S)-8-(2-fluoro-5-methylphenylsulfonyl)-1-oxa-8-azaspiro[4.5]decan-3-ylamino)-2-hydroxypropoxy)-N-methylbenzenesulfonamide]
23 | 24.7 nM | CNS(=O)(=O)c1cccc(OC[C@@H](O)CN[C@H]2COC3(CCN(S(=O)(=O)c4cc(C)ccc4F)CC3)C2)c1 [Compound 269, 3-((S)-3-((R)-8-(2-fluoro-5-methylphenylsulfonyl)-1-oxa-8-azaspiro[4.5]decan-3-ylamino)-2-hydroxypropoxy)-N-methylbenzenesulfonamide]
24 | 16.7 nM | CNS(=O)(=O)c1cccc(OC[C@@H](O)CN[C@@H]2COC3(CCN(S(=O)(=O)c4ccc(Br)c(C)c4)CC3)C2)c1 [Compound 270, 3-((S)-3-((S)-8-(4-bromo-3-methylphenylsulfonyl)-1-oxa-8-azaspiro[4.5]decan-3-ylamino)-2-hydroxypropoxy)-N-methylbenzenesulfonamide]
25 | 7.53 nM | CNS(=O)(=O)c1cccc(OC[C@@H](O)CN[C@H]2COC3(CCN(S(=O)(=O)c4ccc(Br)c(C)c4)CC3)C2)c1 [Compound 271, 3-((S)-3-((R)-8-(4-bromo-3-methylphenylsulfonyl)-1-oxa-8-azaspiro[4.5]decan-3-ylamino)-2-hydroxypropoxy)-N-methylbenzenesulfonamide]
26 | 31.6 nM | CNS(=O)(=O)c1cccc(OC[C@@H](O)CN[C@H]2COC3(CCN(S(=O)(=O)c4ccc5c(c4)NC(=O)CO5)CC3)C2)c1 [Compound 279, 3-((S)-2-hydroxy-3-((R)-8-(3-oxo-3,4-dihydro-2H-benzo[b][1,4]oxazin-6-ylsulfonyl)-1-oxa-8-azaspiro[4.5]decan-3-ylamino)propoxy)-N-methylbenzenesulfonamide]
